Reference: US20110300167A1, “CXCR5 RECEPTOR COMPOUNDS” (priority 2008, published 2011)

Key:
Format in all cases: cell-based
CXCR5 [1] = molecular target: T1, CXCR5 (Homo sapiens, UniProt P32302); assay: HTRF cAMP assay, inhibition of forskolin-stimulated cAMP production in HEK293 cells expressing hCXCR5; design: expressed in transfected cells; host or cells: HEK293; details: HEK293 cells expressing hCXCR5, 2 doses of compound (3 uM, 0.3 uM)
T1 sequence (P32302 1-372): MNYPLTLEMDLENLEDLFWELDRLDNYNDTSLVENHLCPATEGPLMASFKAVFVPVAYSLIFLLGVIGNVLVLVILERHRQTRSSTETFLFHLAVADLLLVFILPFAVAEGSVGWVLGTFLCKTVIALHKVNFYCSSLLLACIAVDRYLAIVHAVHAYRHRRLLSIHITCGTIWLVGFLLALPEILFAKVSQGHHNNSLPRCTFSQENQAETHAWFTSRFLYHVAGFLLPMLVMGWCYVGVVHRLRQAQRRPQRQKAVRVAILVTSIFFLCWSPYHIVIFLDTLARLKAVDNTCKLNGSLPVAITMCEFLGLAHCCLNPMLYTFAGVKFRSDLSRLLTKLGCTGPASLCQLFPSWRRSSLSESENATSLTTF
From the text: HTRF (homogeneous time resolved fluorescence) is a technology developed by Cisbio Bioassays based on TR-FRET (time-resolved fluorescence resonance energy transfer). Cisbio Bioassays has developed a wide selection of HTRF-based assays compatible with whole cells, thereby enabling functional assays run under more physiological conditions. cAMP kits are based on a competitive immunoassay using cryptate-labeled anti-cAMP antibody and d2-labeled cAMP. This assay allows the measurement of increase in intracellular cAMP upon Gs-coupled receptor activation as well as decrease in forskolin stimulated increase in cAMP upon Gi-coupled receptor activation. The IP-One assays are competitive immunoassays that use cryptate-labeled anti-IP1 monoclonal antibody and d2-labeled IP1. IP1 is a relatively stable downstream metabolite of IP3, and accumulates in cells following Gq receptor activation.
A cAMP assay was performed in the presence of Compound 14 to assess the activation of CXCR5 by the production of cAMP. HEK293 cells expressing hCXCR5 were incubated with CXCL13, and the inhibition of forskolin-stimulated cAMP production was quantified in cells in the absence and presence of Compound 14. […] This response is indicative of a reduction of decrease in forskolin-stimulated cAMP due to enhanced CXCR5 (Gi) activation.

CXCR5 [2] = molecular target: T1, CXCR5; assay: β-arrestin assay (DiscoverX eXpress β-arrestin cells expressing CXCR5)
From the text: The β-arrestin assays developed by DiscoverX employed herein detect binding of a ligand to the GPCR by directly measuring β-arrestin recruitment to the GPCR independent of G-protein coupling. In this system, β-arrestin is fused to an N-terminal deletion mutant of β-gal (termed the enzyme acceptor of EA) and the GPCR of interest is fused to a smaller (42 amino acids), weakly complementing fragment. In cells that stably express these fusion proteins, ligand stimulation results in the interaction of β-arrestin and the tagged GPCR, forcing the complementation of the two β-gal fragments and resulting in the formation of a functional enzyme that converts substrate to detectable signal. In practice, eXpress β-arrestin cells expressing the receptor of interest are incubated with either compound alone (agonist mode), or compound plus native ligand (allosteric mode). A chemiluminescent substrate is then added to determine the extent of enzyme activity, and by inference, arrestin recruitment to GPCR.
The β-arrestin assays for CXCR5 Compound 14 were run in both agonist and allosteric modes. In agonist mode, the CXCR5-expressing eXpress β-arrestin cells were incubated with a dose curve of CXCR5 Compound 14 in the absence of CXCL13. […] In allosteric mode, Compound 14 is co-incubated with CXCL13, and the CXCR5 response of the eXpress cells is quantified.

CXCR5 [3] = molecular target: T1, CXCR5; assay: Chemotaxis assay (Transwell, CXCL13 dose-response, 300.19 cells expressing CXCR5); details: 300.19 cells incubated with compound, compared to the vehicle control
From the text: Chemotaxis assays were utilized to determine the effect of compound on the directed migration of cells in response to chemokine. 300.19 cells that express CXCR5 were placed in the upper chamber of a Transwell chemotaxis plate (Corning) and allowed to migrate through a polycarbonate membrane to a lower chamber containing the appropriate receptor-specific ligand. To test for antagonist or potentiating activity, cells were mixed with the desired concentration of compound prior to addition to the upper chamber. Conversely, agonist activity was determined by adding compound in the bottom chamber only without endogenous chemokine. The effect of compound is quantified by several parameters, including the extent of maximum response, the shift of agonist dose-response curves, and the area under the curve. […]
To initiate cell migration, the assembled transwell plate was placed in a 37° C., […] incubator for a specified time interval, typically between 30 and 120 minutes. […] To quantify migrated cells, plates were thawed at 37° C. in a humidified chamber, and then a sample volume was removed from each well and mixed with an equal volume of CyQuant (Invitrogen) working solution in opaque plates. The fluorescence intensity of each well represents the DNA content and is directly proportional to cell number. […]

For Pal-HAVHAYRHRRLLS-amide [Compound 14], the “shift of cAMP responses to CXCL13 (inhibition of forskolin-stimulated cAMP production)” value (CXCR5 [1]) was “shifted leftward in a dose-dependent manner”, the “β-arrestin recruitment response curve, allosteric mode” value (CXCR5 [2]; compound co-incubated with CXCL13) was “left-shifted and higher maximal response curve” and the “β-arrestin recruitment response, agonist mode” value (CXCR5 [2]; dose curve of compound in the absence of CXCL13) was “lack of response”. For the same substance, the “shift of the bell-shaped ligand dose-response curve (chemotaxis)” value (CXCR5 [3]; CXCL13 dose-response) was “leftward shift” and the “AUC of the bell-shaped ligand dose-response curve (chemotaxis)” value (CXCR5 [3]) was “increase”.
